The text below walks through data of patent publication US20140187594A1, “DIPHENYL ETHER COMPOUNDS FOR THE TREATMENT OF LIVER, LUNG DISORDERS, DIABETIC COMPLICATIONS AND CARDIOVASCULAR DISEASES” (ORCHID CHEMICALS AND PHARMACEUTICALS LTD, priority 2010, published 2014).

The subject of experiment [1] is bleomycin induced lung fibrosis. Description: Bleomycin induced lung fibrosis (prophylactic). In kind it is in vivo, C57BL/6 mice. Particulars: 100 mg/kg p.o., 7 days before and 14 days after bleomycin; FIGS. 26 & 27. On the procedure: Female C57BL/6 mice were used in this study. Animals were divided into four groups based on their body weight. To induce fibrosis bleomycin was administered at 0.1 U/animal (volume 50 μL) intratracheally to Group II (Disease control), Group III and Group IV, whereas Group I (Normal control) received only saline. The bleomycin challenged Group III and Group IV animals were treated with pentoxifylline (20 mg/kg p.o.) and compound of formula (A) (100 mg/kg p.o.) respectively, whereas Group I and the bleomycin challenged Group II animals received vehicle for 7 days before and 14 days after bleomycin administration. Body weight, feed and liquid intake and mortality rate were recorded. At the end of the study, animals were bled and plasma was stored in deep freezer (−80° C.) for biochemical parameters estimation. Then, the animals were sacrificed and lung tissue harvested and weighed. Right lung tissue was stored in deep freezer (−80° C.) for expression study and drug concentration analysis. The left lung tissues was fixed in formalin (10%) by slow infusion, then immersed and preserved in formalin (10%) for histopathology examination.

A further experiment has as its system HC-HF diet fed Hamsters. Description: HC-HF diet fed dyslipidemic hamsters. In kind it is in vivo, Golden Syrian hamsters. Particulars: 28 days. On the procedure: Dyslipidemia in hamsters were developed by feeding supranutritional diet with fructose liquid (10%) which simulates features of dyslipidemia in human. These features were treated as mentioned below. Thirty male Golden Syrian hamsters aged 14-16 weeks, body weight ranges between 100-160 g were used for this study. Animals were divided into two groups. First group (n=7) was treated as a normal control and was fed with chow feed (Nutri Lab® Rodent, Tetragon Chemie Pvt. Ltd., Bangalore) and the second group (n=23) was fed with HC-HF diet (in-house made), the composition of which were Corn oil 11.50%, Coconut oil 11.50%, Cholesterol 0.50%, Sodium cholate 0.25% and Nutri Lab® feed 76.25% and animals were provided with 10% fructose in the drinking water. […] During this period, animal body weight was recorded daily. […]
The dyslipidemic model was developed in the protocol as mentioned in experimental 4. […] During this period, animal body weight was recorded daily. […]
The parameters like Glucose, ALT, AST, TC, TG (Clinical chemistry analyzer Erba XL 300), insulin (Linco®-CA, Product code: EZRMI-13K) and TNFα (GE Healthcare, Amersham, UK. Product code: RPN2718) were measured using commercially available kits. NEFA was measured in serum using commercially available NEFA C kit (Product code No: 279-75401, Wako pure chemical industries ltd., Japan).

The test system of another experiment is STZ induced diabetic rat. Kind of experiment: Lenticular degeneration in STZ induced type I diabetic model. In kind it is in vivo, Sprague Dawley rats. The settings on record: 100 mg/kg for 2 months, FIG. 41. On the procedure: The animal model was developed by injecting STZ to Sprague Dawley rats and kept for 10 weeks to develop diabetic complications. Initially animals were in hyperglycemic and chronically, developed several feature of diabetes and diabetic complications, which simulates human diabetes and complications. These features were treated as mentioned below. Forty male Sprague Dawley rats aged 6-8 weeks, body weight range between 150-190 g was used for this study. The animals were divided into two groups. First group (n=10) was treated as a normal control injected with normal saline and the second group (n=30) was treated with STZ (50 mg/kg, i.v.), (Sigma. USA). Body weight was recorded every week and blood glucose every month using glucometer (Contour TS, Bayer Healthcare Ltd.). Every week eyes were examined for cataractous changes. After 10 weeks of diabetes induction animals were grouped based on blood glucose levels and the severity of cataract. The first group served as normal control (n=10). The diabetic animals with cataract were divided into two groups, second group served as disease control (n=9) and third group was treated with compound of formula (A) (n=10) at 100 mg/kg dose for 2 months. At the last day of experiment animals were kept for 12 hours fasting, next day blood was collected, plasma separated and used for biochemical analysis. […] Data Analysis: The values are expressed as Mean±SE. […]

The target of experiment [2] is T1, Rat lens Aldose reductase (Rattus norvegicus, UniProt P07943).
T1 construct: Rat lens Aldose reductase is used; from tissue; host or cells: rat lens
Description: Aldose reductase inhibitory activity. In kind it is biochemical. Particulars: rat lens enzyme, 0.2 mM NADPH, pH 6.2, 25° C. On the procedure: Rat lens Aldose reductase is used. Test compound and/or vehicle is preincubated with 3000 μg/ml enzyme (J. Enzyme Inhib. 1993, 7, 249-256; Biol. Pharm. Bull. 1994, 17, 458-459) and 0.2 mM NADPH in phosphate buffer pH 6.2 for 15 minutes at 25° C. The reaction is initiated by addition of 10 mM DL-glyceraldehyde and incubated for another 20 minutes. Determination of the amount of NADPH remained is read spectrophotometrically. Compounds are screened at 10 μM. Since enzyme activity may change from lot to lot, the concentration used will be adjusted if necessary.

As to `COC(=O)[C@@H](N)Cc1ccc(Oc2ccc(CC3SC(=O)NC3=O)cc2)cc1` (stereo partly drawn) [Compound of formula (A), Methyl(2S)-2-amino-3-(4-{4-[(2,4-dioxo-1,3-thiazolidin-5-yl)methyl]phenoxy}phenyl)propanoate], the “lung fibrosis formation (histopathology)” value in experiment [1] is listed as “significantly prevents fibrosis formation”. Further, in the experiment with HC-HF diet fed Hamsters (30 and 100 mg/kg p.o., FIG. 15), the NEFA result was “significant reduction”. Besides, the “plasma TG” value in the experiment with HC-HF diet fed Hamsters ((A) 30 and 100 mg/kg, disodium salt of (C) 10 and 30 mg/kg p.o., FIGS. 14 & 29) was “significant reduction”. For the same molecule, the lenticular degeneration entry in the experiment on STZ induced diabetic rat was “significant improvement in lenticular degeneration”. The molecule also displayed a half-maximal inhibitory concentration (IC50) in experiment [2] of 4.07 µM.
